Laboratory results taken from patent US20230119013A1, “N-CYANOPYRROLIDINES WITH ACTIVITY AS USP30 INHIBITORS” (MISSION THERAPEUTICS LIMITED, priority 2020, published 2023).
Like-named read-outs stand apart in the source and are kept apart here.

Key:
[1] = molecular target: T1, UCHL1 (Homo sapiens, UniProt P09936); experiment: DUB IC50 UCHL1; format: biochemical
T1 sequence (P09936 1-223): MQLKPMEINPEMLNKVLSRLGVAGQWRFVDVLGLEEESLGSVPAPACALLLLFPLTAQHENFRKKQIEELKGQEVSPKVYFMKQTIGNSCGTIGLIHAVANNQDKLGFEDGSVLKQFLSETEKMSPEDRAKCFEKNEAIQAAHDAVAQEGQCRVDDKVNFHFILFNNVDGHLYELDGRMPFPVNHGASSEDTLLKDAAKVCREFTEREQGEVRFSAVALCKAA

[2] = molecular target: T2, USP30 (Homo sapiens, UniProt Q70CQ3); experiment: USP30 biochemical IC50 assay (fluorescence polarisation)
T2 construct: purchased Boston Biochem E582
T2 sequence (Q70CQ3 57-517 limits assumed): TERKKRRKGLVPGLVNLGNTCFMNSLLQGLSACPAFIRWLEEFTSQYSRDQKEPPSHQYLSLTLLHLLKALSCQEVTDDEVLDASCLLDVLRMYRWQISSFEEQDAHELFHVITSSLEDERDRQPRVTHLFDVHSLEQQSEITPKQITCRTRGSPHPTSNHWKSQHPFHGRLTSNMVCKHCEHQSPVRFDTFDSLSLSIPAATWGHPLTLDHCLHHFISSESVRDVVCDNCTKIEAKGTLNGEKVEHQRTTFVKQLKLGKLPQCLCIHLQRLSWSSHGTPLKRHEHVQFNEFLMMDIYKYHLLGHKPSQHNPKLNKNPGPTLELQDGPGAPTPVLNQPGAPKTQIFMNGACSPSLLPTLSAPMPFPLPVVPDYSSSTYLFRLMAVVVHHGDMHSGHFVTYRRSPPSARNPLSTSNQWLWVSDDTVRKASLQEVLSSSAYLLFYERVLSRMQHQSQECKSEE
Method: Dilution plates were prepared at 21 times the final concentration (2100 μM for a final concentration of 100 μM) in 50% DMSO in a 96-well polypropylene V-bottom plate (Greiner #651201). A typical 8-point dilution series would be 100, 30, 10, 3, 1, 0.3, 0.1, 0.03 μM final. Reactions were performed in duplicate in black 384 well plates (small volume, Greiner 784076) in a final reaction volume of 21 μl. Either 1 μl of 50% DMSO or diluted compound was added to the plate. USP30 (Boston Biochem #E582) was diluted in reaction buffer (40 mM Tris, pH 7.5, 0.005% Tween 20, 0.5 mg/ml BSA, 5 mM beta-mercaptoethanol) to achieve a final assay concentration of 4 nM, and 10 μl of diluted USP30 was added to the compound. Enzyme and compound were incubated for 30 min at room temp. Reactions were initiated by the addition of 50 nM of TAMRA labelled peptide linked to ubiquitin via an iso-peptide bond as fluorescence polarisation substrate. Reactions were read immediately after addition of substrate and following a 2-hour incubation at room temperature. Readings were performed on a Pherastar Plus (BMG Labtech). λ Excitation 540 nm; Emission 590 nm.

[3] = tested on: TOM20 ubiquitylation; experiment: TOM20-ubiquitylation assay; format: cell-based, human; settings: antimycin A/oligomycin mitophagy trigger
Source text: Human cell lines can be challenged with mitochondrial depolarizing agents (ionophores (eg. CCCP, valinomycin), mitochondrial complex inhibitors (oligomycin, antimycin A)) to induce ubiquitylation of TOM20, which is then further promoted in the presence of USP30 inhibitors. TOM20 ubiquitylation is subsequently assessed through western blotting of the cell lysates, with TOM20 ubiquitylation adduct detection possible due to an 8 kDa molecule weight increase for each molecule of ubiquitin added, resulting in laddering of a TOM20 immunoreactive band. TOM20-ubiquitylation levels can be quantified using chemiluminescence densitometry of laddered immunoreactive bands.

[4] = Plasma free fraction by equilibrium dialysis; format: in vitro ADME; settings: mouse plasma; read-out: Binding Mouse Plasma fu, p
Source text: (§1) log P: partition coefficient; lipophilicity measurement. log D: distribution co-efficient; lipophilicity measurement. TPSA: topological polar surface area. Turbidimetric solubility: Test compound solution prepared in DMSO diluted into aqueous buffer. Turbidimetry is used as the end-point by measuring absorbance at 620 nm. FaSSIF: simulated intestinal fluid in fasted state measured at pH 6.5. Hep Cl mouse: in vitro hepatocyte clearance in mouse cells. Hep Cl human: in vitro hepatocyte clearance in human cells. Plasma fu,p: The free fraction of a compound in plasma preparation determined by in vitro equilibrium dialysis. It is understood that only unbound (free) compound is capable of engaging with the target. Brain fu,br: The free fraction of a compound in brain homogenate preparation determined by in vitro equilibrium dialysis. It is understood that only unbound (free) compound is capable of engaging with the target. Clu: in vitro clearance. Clu as defined here is the scaled clearance, in turn calculated from the intrinsic clearance. The intrinsic clearance is the predicted clearance due to hepatic metabolic reactions, determined from incubation of a compound in a hepatocyte preparation. […] Cl in vivo clearance: Pharmacokinetic measurement of the volume of plasma (or any matrix) from which a substance is completely removed per unit time.

[5] = tested on: hepatocyte; experiment: Hepatocyte clearance mouse; format: in vitro ADME; settings: mouse hepatocytes
Source text: as §1

[6] = tested on: T3, USP2, USP10, USP16, USP21, USP22, USP25, USP28; experiment: DUB IC50, seven DUBs; format: biochemical; settings: range over the seven DUBs
T3 construct: DUB IC50 (μM) USP2, USP10, USP16, USP21, USP22, USP25, USP28; other: range over the seven DUBs

[7] = tested on: USP2, USP10, USP16, USP21, USP22, USP25, USP28; experiment: DUB IC50, seven DUBs; format: biochemical; settings: for DUB selectivity preference for USP30 v 7 DUBs: range over the seven DUBs
[8] = Mouse plasma stability; format: in vitro ADME; settings: read-out: Stability Mouse plasma t1/2
[9] = tested on: HCT116 human colorectal carcinoma cells; experiment: In vitro cytotoxicity (Cell Tox), alamarBlue; format: cell-based; settings: HCT-116, 96-hour continual compound exposure
Method: In Vitro Cytotoxicity (Cell Tox): Measured in HCT116 human colorectal carcinoma cells using alamarBlue™ as the assay endpoint. Compound cytotoxicity was measured over a period of 96-hour continual compound exposure.

[10] = tested on: T4, cathepsins B, K, L, S and V; experiment: Cathepsin IC50, summary over B, K, L, S, V; format: biochemical; settings: range over the five cathepsins
T4 construct: Cathepsin IC50 (μM) B, K, L, S, V; other: range over the five cathepsins

[11] = tested on: cathepsins B, K, L, S and V; experiment: Cathepsin IC50, summary over B, K, L, S, V; format: biochemical; settings: K, L

N#Cc1ccc(-c2cnc(NC(=O)[C@H]3CCN(C#N)C3)s2)cc1OC(F)(F)F [B, reference compound]
DUB selectivity preference for USP30 v UCHL1 [1]: 4.5
IC50 [1]: 0.77 µM
fold more potent against USP30 than UCHL1 [1]: 4.5 fold
IC50 ([2]; read-out: DUB IC50 (μM) USP30): 0.172 µM
IC50 ([2]; read-out: USP30 IC50): 0.172 µM

N#CN1CC[C@H](C(=O)Nc2ncc(-c3ccccc3)s2)C1 [C, reference compound]
fold more potent against USP30 than UCHL1 [1]: 0.8 fold

CC1CC(C(=O)Nc2ncc(-c3ccccc3)s2)CN1C#N (stereo not drawn) [D, reference compound]
fold more potent against USP30 than UCHL1 [1]: 1.5 fold

COC[C@H]1C[C@@H](NC(=O)c2ncc(-c3cccc(OC(F)(F)F)c3)o2)CN1C#N [Example 3, N-((3R,5R)-1-Cyano-5-(methoxymethyl)pyrrolidin-3-yl)-5-(3-(trifluoromethoxy)phenyl)oxazole-2-carboxamide]
TOM20-Ub 1.5-fold gain EC1.5x (μM) [3]: 0.210 (n = 1) μM
DUB selectivity preference for USP30 v UCHL1 [1]: 37500
IC50 [1]: > 300 µM
fraction unbound [4]: 0.036
fold more potent against USP30 than Reference Example A ([2]; biochemical assay): 9 fold
fold more potent against USP30 than Reference Example B ([2]; biochemical assay): 22 fold
fold more potent against USP30 than Reference Example C ([2]; biochemical assay): 39 fold
fold more potent against USP30 than Reference Example D ([2]; biochemical assay): 550 fold
IC50 ([2]; read-out: USP30 IC50): 0.008 µM
Hepatocyte Cl mouse scaled Clu [5]: 97.4 mL/min/kg
IC50 [6]: > 300 µM
DUB selectivity preference for USP30 v 7 DUBs [7]: >37500
half-life [8]: > 2 h
EC50 [9]: 23900 nM

COc1cccc(-c2cc(C(=O)N[C@@H]3CCN(C#N)C3)on2)c1 [Reference Example A, reference compound]
IC50 [10]: 0.79 to 8.8 µM
fold more potent against USP30 than against each of the cathepsins, at a minimum ([11]; cathepsins B, S and V): 11 fold
Selectivity preference for USP30 v cathepsins ([11]; range over cathepsins B, S, V): 11-126
IC50 [6]: 0.19 to 9.9 µM
fold more potent against USP30 than against each of the seven DUBs, at a minimum ([7]; USP2, USP10, USP16, USP21, USP22, USP25 and USP28): 2.7 fold
DUB selectivity preference for USP30 v 7 DUBs [7]: 2.7-141
